Key:
SK-OV-3 = experiment: NCI60 antitumor screening; format: cell-based, human; conditions: Homo sapiens; 10 μM single dose; SK-OV-3 (ovarian cancer); read-out: growth inhibition percent (GI%)
MDA-MB-231/ATCC = experiment: NCI60 antitumor screening; format: cell-based, human; conditions: Homo sapiens; 10 μM single dose; MDA-MB-231/ATCC (breast cancer); read-out: growth inhibition percent (GI%)
RXF 393 = experiment: NCI60 antitumor screening; format: cell-based, human; conditions: Homo sapiens; 10 μM single dose; RXF 393 (renal cancer); read-out: growth inhibition percent (GI%)
SF-539 = experiment: NCI60 antitumor screening; format: cell-based, human; conditions: Homo sapiens; 10 μM single dose; SF-539 (CNS cancer); read-out: growth inhibition percent (GI%)
COLO 205 = experiment: NCI60 antitumor screening; format: cell-based, human; conditions: Homo sapiens; 10 μM single dose; COLO 205 (colon cancer); read-out: growth inhibition percent (GI%)
SNB-19 = experiment: NCI60 antitumor screening; format: cell-based, human; conditions: Homo sapiens; 10 μM single dose; SNB-19 (CNS cancer); read-out: growth inhibition percent (GI%)
SR = experiment: NCI60 antitumor screening; format: cell-based, human; conditions: Homo sapiens; 10 μM single dose; SR (leukaemia); read-out: growth inhibition percent (GI%)
NCI-H322M = experiment: NCI60 antitumor screening; format: cell-based, human; conditions: Homo sapiens; 10 μM single dose; NCI-H322M (non-small cell lung cancer); read-out: growth inhibition percent (GI%)
LOX IMVI = experiment: NCI60 antitumor screening; format: cell-based, human; conditions: Homo sapiens; 10 μM single dose; LOX IMVI (melanoma); read-out: growth inhibition percent (GI%)
NCI60 cell lines panel = experiment: NCI60 antitumor screening, full panel; format: cell-based, human; conditions: Homo sapiens; 10 μM single dose; mean over NCI60 cell lines; read-out: Mean growth inhibition percent (GI%)
Procedure, shortened: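 Single-concentration screen at 10 μM across the NCI60 panel (leukaemia, NSCLC, colon, CNS, melanoma, ovarian, renal, prostate, breast). Results are expressed as percent growth inhibition (GI%) of treated lines.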

TK-10 = experiment: NCI60 antitumor screening; format: cell-based, human; conditions: Homo sapiens; 10 μM single dose; TK-10 (renal cancer); read-out: growth inhibition percent (GI%)
HL-60(TB) = experiment: NCI60 antitumor screening; format: cell-based, human; conditions: Homo sapiens; 10 μM single dose; HL-60(TB) (leukaemia); read-out: growth inhibition percent (GI%)
MCF7 = experiment: NCI60 antitumor screening; format: cell-based, human; conditions: Homo sapiens; 10 μM single dose; MCF7 (breast cancer); read-out: growth inhibition percent (GI%)
SK-MEL-28 = experiment: NCI60 antitumor screening; format: cell-based, human; conditions: Homo sapiens; 10 μM single dose; SK-MEL-28 (melanoma); read-out: growth inhibition percent (GI%)
ACHN = experiment: NCI60 antitumor screening; format: cell-based, human; conditions: Homo sapiens; 10 μM single dose; ACHN (renal cancer); read-out: growth inhibition percent (GI%)
OVCAR-8 = experiment: NCI60 antitumor screening; format: cell-based, human; conditions: Homo sapiens; 10 μM single dose; OVCAR-8 (ovarian cancer); read-out: growth inhibition percent (GI%)
CAKI-1 = experiment: NCI60 antitumor screening; format: cell-based, human; conditions: Homo sapiens; 10 μM single dose; CAKI-1 (renal cancer); read-out: growth inhibition percent (GI%)
SK-MEL-5 = experiment: NCI60 antitumor screening; format: cell-based, human; conditions: Homo sapiens; 10 μM single dose; SK-MEL-5 (melanoma); read-out: growth inhibition percent (GI%)
UACC-257 = experiment: NCI60 antitumor screening; format: cell-based, human; conditions: Homo sapiens; 10 μM single dose; UACC-257 (melanoma); read-out: growth inhibition percent (GI%)
NCI/ADR-RES = experiment: NCI60 antitumor screening; format: cell-based, human; conditions: Homo sapiens; 10 μM single dose; NCI/ADR-RES (ovarian cancer); read-out: growth inhibition percent (GI%)
SF-268 = experiment: NCI60 antitumor screening; format: cell-based, human; conditions: Homo sapiens; 10 μM single dose; SF-268 (CNS cancer); read-out: growth inhibition percent (GI%)
A498 = experiment: NCI60 antitumor screening; format: cell-based, human; conditions: Homo sapiens; 10 μM single dose; A498 (renal cancer); read-out: growth inhibition percent (GI%)

| SMILES | inhibition at 10 µM (SK-OV-3) | inhibition at 10 µM (RXF 393) | inhibition at 10 µM (SF-539) | inhibition at 10 µM (COLO 205) | inhibition at 10 µM (SNB-19) | inhibition at 10 µM (NCI-H322M) | inhibition at 10 µM (LOX IMVI) | inhibition at 10 µM (NCI60 cell lines panel) | inhibition at 10 µM (TK-10) | inhibition at 10 µM (HL-60(TB)) | inhibition at 10 µM (MCF7) | inhibition at 10 µM (SK-MEL-28) | inhibition at 10 µM (ACHN) | inhibition at 10 µM (OVCAR-8) | inhibition at 10 µM (CAKI-1) | inhibition at 10 µM (SK-MEL-5) | inhibition at 10 µM (UACC-257) | inhibition at 10 µM (NCI/ADR-RES) | melting point | inhibition at 10 µM (SF-268) | other results |
| --- | --- | --- | --- | --- | --- | --- | --- | --- | --- | --- | --- | --- | --- | --- | --- | --- | --- | --- | --- | --- | --- |
| N#Cc1c(-c2ccc(F)cc2)nc(SCc2ccccc2)nc1N1CCN(c2ccccc2)CC1 [4m, 2-(Benzylthio)-4-(4-fluorophenyl)-6-(4-phenylpiperazin-1-yl) pyrimidine-5-carbonitrile] | < 10% | < 10% | < 10% | < 10% | < 10% | < 10% | < 10% | < 10% | < 10% | < 10% | 16.1% | < 10% | < 10% | < 10% | 10.7% | < 10% | < 10% | < 10% | 165 to 167 °C | < 10% | inhibition at 10 µM (MDA-MB-231/ATCC): < 10%; inhibition at 10 µM (SR): < 10%; inhibition at 10 µM (A498): < 10% |
| Cc1ccc(CSc2nc(-c3ccc(F)cc3)c(C#N)c(N3CCN(c4ccccc4)CC3)n2)cc1 [4p, 4-(4-Fluorophenyl)-2-((4-methylbenzyl)thio)-6-(4-phenylpiperazin-1-yl) pyrimidine-5-carbonitrile] | < 10% | < 10% | < 10% | 12.2% | < 10% | < 10% | < 10% | < 10% | < 10% | < 10% | 21.3% | < 10% | < 10% | < 10% | 16.6% | 13.7% | 14.1% | < 10% | 145 to 147 °C | 15.3% | inhibition at 10 µM (A498): < 10% |
| N#Cc1c(-c2ccc(F)cc2)nc(SCc2ccc(F)cc2)nc1N1CCN(c2ccccc2)CC1 [4n, 2-((4-Fluorobenzyl)thio)-4-(4-fluorophenyl)-6-(4-phenylpiperazin-1-yl)pyrimidine-5-carbonitrile] | < 10% | < 10% | < 10% | < 10% | < 10% | < 10% | < 10% | < 10% | < 10% | < 10% | 24.8% | < 10% | < 10% | < 10% | 16.3% | 12.4% | 12.9% | < 10% | 180 to 182 °C | 14.1% | inhibition at 10 µM (A498): < 10% |

From article PMC10620772, “Design, synthesis, and biological evaluation of new pyrimidine-5-carbonitrile derivatives as novel anti-cancer, dual EGFR^WT/COX-2 inhibitors with docking studies” (RSC Advances, 2023)
